Assay results taken from patent US11078164B1, “PTEN binding compounds, formulations, and uses thereof” (University of South Florida, priority 2017, dated 2021).
“Also recorded” adds a separate entry of the source.

How the values were obtained:
Assay type in all cases: cell-based
[1] = test system: p-AKT (Ser473); assay: Immunoblot of p-AKT (Ser473) in treated A549 cells; conditions: 6 hours; for expression of p-AKT (Ser473), immunoblot: 40 μM, n=3; for decrease in phosphorylated, active form of AKT (pAKT-Ser473): about 40 μM
Method: (§1) PTEN antagonizes PI3K/AKT/S6K pathway activation via its lipid phosphatase function (Stambolic et al., 1998, Cell, October 2; 95(1):29-39, Sun H., et al., 1999, Proc Natl Acad Sci USA. 1999 May 25; 96(11):6199-204 and Song, M. S. et al., 2012, Molecular Cell Biology 13, 283-296). A549 lung adenocarcinoma cells were treated with either γ-AAPeptide #43 or #9 for 6 hours to determine the activity of PI3K/AKT/S6K downstream pathway effectors. There was about a 30 percent and about 70 decrease in the phosphorylated, active form of AKT (pAKT-Ser473) upon treatment with 40 μM γ-AAPeptide #43 (FIG. 2A) or about 40 μM γ-AAPeptide #9 (FIG. 2B) respectively. […] However, direct allosteric effects of these compounds on the structure and catalytic function of the PTEN enzyme activity remains highly plausible.
(§2) Protein Isolation and Immuno-blotting. For treatment with γ-AAPeptides, A549 cells were grown to about 50-60% confluency in 6-well plates, treated with indicated amount of γ-AAPeptide and allowed to incubate for 6 hours at about 5% CO2 and 37° C. After about 6 hours, media was aspirated and cells were lysed in ice cold IP Lysis Buffer (25 mM Tris-HCl pH 7.4, about 150 mM NaCl, about 1% NP-40, about 1 mM EDTA, about 5% glycerol) supplemented with about 100× protease inhibitor cocktail (Sigma Aldrich, St. Louis, Mo.), phosphatase inhibitor cocktail (final concentration about 10 mM sodium azide, about 10 mM NaF, about 4 mM sodium orthovanadate, about 10 mM sodium-molybdate dehydrate, about 4 mM sodium-tartrate dibasic dehydrate, about 5 mM EDTA disodium dehydrate, about 2 mM imidazole), about 1 mM DTT and about 1 mM PMSF. Samples were sonicated at about 10% amplitude on a digital sonifier (Branson Ultrasonics, Dabury, Conn.), centrifuged at about 14,000 rpm for about 10 minutes and the supernatant was collected. Protein concentration was determined using Bradford Dye Reagent (BioRad, Hercules, Calif.). The remaining supernatant was boiled in about 100 μL of 2× Laemmli Buffer containing about 5% β-mercaptoethanol (Sigma Aldrich, St. Louis, Mo.) and subjected to SDS-PAGE gel analysis, followed by immunoblotting. About 20 μg of total proteins from A549 cell extract were separated on a about 12% SDS-PAGE gel and electro-blotted to nitrocellulose membranes (about 0.45 μm; GE Healthcare, Pittsburgh, Pa.). Blots were blocked with about 5% nonfat dry milk or bovine serum albumin in TBST buffer (about 10 mM Tris, pH about 8, about 150 mM NaCl, about 0.1% Tween 20) and incubated with indicated primary antibodies (Table 1). Peroxidase conjugated mouse or rabbit secondary antibodies were used at dilution of about 1:10,000 (Jackson ImmunoResearch, West Grove, Pa.). […]

[2] = test system: p-P70 S6K (Thr389); assay: Immunoblot of p-P70 S6K (Thr389) in treated A549 cells; conditions: 40 μM, 6 hours; for expression of p-P70 S6K (Thr389), immunoblot: n=3
Method: as §1, §2

[3] = test system: PTEN C-terminus (C-tail) cluster (Ser380, Thr382, Thr383, Ser385); assay: Immunoblot of PTEN C-tail phosphorylation in treated A549 cells; conditions: about 40 μM
Method: as §1
Protein Isolation and Immuno-blotting. For treatment with γ-AAPeptides, A549 cells were grown to about 50-60% confluency in 6-well plates, treated with indicated amount of γ-AAPeptide and allowed to incubate for 6 hours at about 5% CO2 and 37° C. […] Protein concentration was determined using Bradford Dye Reagent (BioRad, Hercules, Calif.). […]

[4] = test system: A549 cells; assay: Cell proliferation assay (Cell Counting Kit-8); conditions: 24 hours treatment; 9000 cells/well; n=6
Method: Proliferation Assays. Cell proliferation studies were performed using the Cell Counting Kit-8 (Dojindo Molecular Technologies, Rockville, Md.). A549 cells were plated in a 96-well plate with a cell density of about 9000 cells/well and cultured in F12K medium as described above. Cells were treated with indicated amount of γ-AAPeptide diluted in F12K media for 24 hours. After 24 hours, final cell numbers were assessed as a function of absorbance at 450 nm of reduced WST-(2-(2-methoxy-4-nitrophenyl)-3-(4-nitrophenyl)-5-(2,4-disulfophenyl)-2H-tetrazolium, monosodium salt).

[5] = test system: A549 cells; assay: ECIS migration / wound closure assay; conditions: for wound closure efficiency (continuous impedance sensing): A549 cells, 12 hours prior to wounding, vs control cells; for cell migration (ECIS): A549 lung cancer cells
Method: Migration Assay. Migration assay was performed on the ECIS machine (Name, Address). Briefly, A549 cells were grown on electric cell substrate impedance sensing 8-well plate arrays (8W1E; Applied Biophysics, Troy, N.Y.) in F12K media as described above. Confluent cells were treated with media containing γ-AAPeptide at desired concentration for about 12 hours prior to wounding. Cells were wounded using an elevated field pulse of about […] at about 32,000 Hz applied for about 20 seconds, producing a uniform circular lesion of about […] in size, and wound closure was tracked until healing. The impedance (Z) was measured at about 32000 Hz, normalized to its value at the initiation of data acquisition, and plotted as a function of time. Assays were performed in triplicate and reported as mean±S.E. unless stated otherwise (p value of ≤0.05 was considered to be significant).

[6] = test system: A549 cells; assay: Flow cytometry cell cycle analysis; conditions: for cell cycle arrest: 24 hour treatment, vs vehicle treated cells
Method: Flow Cytometry Assay for Cell Cycle Analysis. Cell cycle analysis was performed on A549 cells treated with indicated amount of γ-AAPeptide at about 50-60% confluency for about 24 hours. After about 24 hours of indicated γ-AAPeptide treatment, cells were trypsinized and centrifuged at about 2,000 rpm for about 10 minutes. Media and trypsin were aspirated and cells were washed twice with PBS and spun at about 2,000 rpm for about 10 minutes at about 4° C. after each wash. Cells were then stained with trypan blue (Thermo Fisher Scientific, Waltham, Mass.) and counted using a hemocytometer. Cells were resuspended in Phosphate Buffered Saline (PBS) at a density of about 2×10^6 cells/mL. 1 mL of cells was fixed in about 3 mL ice cold absolute ethanol for about 1 hour at about 4° C. After fixing, cells were washed twice with PBS and spun at about 3,000 rpm for about 10 minutes at about 4° C. after each wash. About 1 mL of Propidium Iodide (P1) staining solution (about 3.8 mM sodium citrate, about 40 μg/mL PI and PBS to volume) was added to each cell pellet, along with about 50 μL of RNase A (Qiagen, Hilden, Germany) at a concentration of about 10 μg/mL. Cells were incubated at about 37° C. for about 20 minutes and sub-sequentially stored at 4° C. until analyzed by flow cytometry. Assays were performed in triplicate and reported as mean±S.E. (p value of ≤0.05 was considered to be significant).

SMILES	expression of p-AKT (Ser473), immunoblot [1]	decrease in phosphorylated, active form of AKT (pAKT-Ser473) [1]	reduction of phosphorylated, active form of P70S6K (p-P70S6K-Thr389) levels [2]	expression of p-P70 S6K (Thr389), immunoblot [2]	phosphorylation status of the PTEN C-terminus (C-tail) cluster [3]	A549 cell proliferation [4]	wound closure efficiency (continuous impedance sensing) ([5]; 30 μM)	cell migration (ECIS) [5]	G1 cell population ([6]; 40 μM, 24 hours)	G2 phase cell population ([6]; 40 μM, 24 hours)	S phase cell population ([6]; 40 μM, 24 hours)	cell cycle arrest [6]	wound closure efficiency (continuous impedance sensing) ([5]; 20 μM)	G1 cell population ([6]; 20 μM, 24 hours)	G2 phase cell population ([6]; 20 μM, 24 hours)	S phase population ([6]; 20 μM, 24 hours)
NCCCC[C@H](N)C(=O)N[C@@H](Cc1ccccc1)CN(CC(=O)NCc1ccc(-c2ccccc2)cc1)C(=O)CC12CC3CC(CC(C3)C1)C2 [#43]	significant decrease	~30%	about 75%	significant decrease	did not appear to alter	reduced A549 cell proliferation in a dose dependent manner; also recorded: Dose-dependent inhibition	decrease in wound closure efficiency	inhibit cell migration	increase	decreased	decreased	arrest cells in G1 phase				
NCCCC[C@H](N)C(=O)N[C@@H](Cc1ccccc1)CN(CC(=O)N(Cc1cccc2ccccc12)Cc1cccc2ccccc12)C(=O)C[C@]12CC3C[C@H](C[C@H](C3)C1)C2 [#9]	significant decrease	about 70%	about 55%	significant decrease	did not appear to alter	reduced A549 cell proliferation in a dose dependent manner; also recorded: Dose-dependent inhibition		inhibit cell migration				arrested the cell cycle in both G1 and G2 phases	decrease in wound closure efficiency	increase	increase	decreased
